Measurements taken from patent publication EP0959987B1, “USE OF PERFLUOROALKYL SUBSTITUTED PHOSPHORUS COMPOUNDS AS LIGANDS FOR HOMOGENEOUS CATALYSIS IN SUPERCRITICAL CARBON DIOXIDE” (Studiengesellschaft Kohle mbH, priority 1997, dated 1998).

Legend:
[1] = scCO2, T = 50 °C, p = 345 bar; cited from earlier work
[2] = Solubility of the complexes in scCO2 by UV spectroscopy (Lambert-Beer law, reference data for THF solutions); assay type: physicochemical
Method: Die Löslichkeit der Komplexe IXa,b in scCO2 wurde mittels UV-Spektroskopie bestimmt und mit der Löslichkeit der unsubstituierten Stammverbindung [(dppe)Rh(hfacac)] IXe verglichen. IXe ist selbst bei hoher Dichte ρ und damit hoher Lösungskraft des scCO2 (Angew. Chem. 1978, 90, 748) nicht löslich (T = 50 °C, […]). Mit IXa und IXb werden hingegen bereits bei niedrigen Dichten (T= 50 °C, ρ = 90 bar, ρ = 0.55 g cm^-3) gelb-orange Lösungen erhalten. Aus den Absorptionsmaxima der UV-Spektren (siehe Abb. 1) läßt sich über das Lambert-Beer'sche-Gesetz mittels Vergleichsdaten für THF-Lösungen eine Sättigungskonzentration von 6.3 x 10^-5 M für IXa und 7.5 x 10^-5 M für IXb ermitteln. Zum Vergleich ist in Abb. 1 auch das UV-Spektrum des Komplexes IXf mit der Alkylphosphorverbindung 1,2-Bis(dicyclohexylphosphino)ethan (dcpe) aufgeführt. Die Löslichkeit von IXf in scCO2 beträgt unter identischen Bedingungen 1.1 x 10^-5 M, ist also um 5x bzw. 7x geringer als die von IXa und IXb. [formula]

Compound | maximale Löslichkeit [1] | Löslichkeit in scCO2 [2]
[(Duphos)Rh(η^4-C8H12)]^+ | 30 µM | –
O=C([CH-]C(=O)C(F)(F)F)C(F)(F)F.[Rh+].c1ccc(P(CCP(c2ccccc2)c2ccccc2)c2ccccc2)cc1 [IXe, [(dppe)Rh(hfacac)], reference compound] | – | nicht löslich
